Results on 29 compounds are retold here after patent US20050176584A1, “Mehtod for high throughput screening of plant growth regulator” (Korea Research Institute of Bioscience and Biotechnology, priority 2002, published 2005).

The subject of experiment [1] is Marchantia polymorpha L. photomixotrophic cells. Briefly: TTC high throughput screening of cell growth in microwell plate. The experiment is classed as cell-based. The following applies: for growth inhibition activities (IC50) to Marchantia polymorpha L. photomixotrophic cells: TTC analysis; for effect of natural compounds on cell growth, in words: 1 ppm.
The subject of experiment [2] is Lemna paucicostata. Briefly: Lemna paucicostata growth inhibition in 24 well plate. The following applies: for inhibition at 31 ppm: Lemna aequinoctialis, 120 h, read-out: Lemna paucicostata (% activity).
The test system of experiment [3] is Nicotiana tabacum cv. (BY4) photomixotrophic cells. Briefly: TTC analysis of growth inhibition, tobacco photomixotrophic cells. The experiment is classed as cell-based. The procedure: As Nicotiana tabacum cv. (BY4) photomixotrophic cells, the cells developed as NaCl resistance cells by Cha et al. (Cha et al., Korean J Bot, -36: 113-120, 1993) were used. For the culture of the above cells, MS minimal medium where 0.7 mg/l of 2,4-D and 0.03 mg/l of kinetin were added was used. 2 g of Nicotiana tabacum cv. […] The cells were sub-cultured at intervals of 14 days. The investigation procedure of cell viability in a 96 microwell plate of the present invention is precisely explained as follows. 1) Treating 150 μl of TTC solution into each well wherein cells are being cultured. 2) Five hours after treating TTC, removing the solution in wells with a 8-channel multi-pipette. 3) Adding 150 μl of 95% ethanol to the remaining cells of each well, and then reacting thereof at 60° C. for 1 hour. 4) After reaction finished, transferring the reacting solution into a new 96 well plate. 5) Measuring the optical density of the well plate at 490 nm wave length with a high throughput screening (HTS) reader. The explained method of the present invention is called high throughput screening. […] Oryza sativa L. cv (Taebaegbyeo) heterotrophic cells used in this experiment were developed from premature embryo (Korean J Plant Tissue Culture, 18: 209-214, 1991).

In experiment [4] the test system is Oryza sativa L. cv (Taebaegbyeo) heterotrophic cells. Briefly: TTC analysis of growth inhibition, rice heterotrophic cells. The settings on record: for growth inhibition activities (IC50) to Oryza sativa L. cv (Taebaegbyeo) heterotrophic cells: TTC analysis; for growth inhibiting activity to non-photomixotrophic (heterotrophic) cells, in words: 10 ppm. The experiment is classed as cell-based. Here is the method:
Other culture conditions were same as those for Marchantia polymorpha L. photomixotrophic cell culture. The investigation procedure of cell viability in a 96 microwell plate of the present invention is precisely explained as follows. 1) Treating 150 μl of TTC solution into each well wherein cells are being cultured. 2) Five hours after treating TTC, removing the solution in wells with a 8-channel multi-pipette. 3) Adding 150 μl of 95% ethanol to the remaining cells of each well, and then reacting thereof at 60° C. for 1 hour. 4) After reaction finished, transferring the reacting solution into a new 96 well plate. 5) Measuring the optical density of the well plate at 490 nm wave length with a high throughput screening (HTS) reader. The explained method of the present invention is called high throughput screening. […] Oryza sativa L. cv (Taebaegbyeo) heterotrophic cells used in this experiment were developed from premature embryo (Korean J Plant Tissue Culture, 18: 209-214, 1991).

Where [5] appears, read: Marchantia polymorpha, natural compounds, final concentration 1 ppm, + inhibiting, − promoting.

The structures appear in SMILES notation.

As for `Oc1ccc(O)cc1` [Hydroquinone], the inhibition at 1 ppm in experiment [1] (setting [5]) was found to be 15%. Besides, the inhibition at 31 ppm in experiment [2] amounted to 0%.

For `CCOC(=O)[C@@H](C)Oc1ccc(Oc2nc3ccc(Cl)cc3o2)cc1` [Phenoxapro-P-ethyl], in experiment [3], the “growth inhibition activities (IC50) to Nicotiana tabacum cv. (BY4) photomixotrophic cells” value worked out at 4.58 ppm. Besides, the “growth inhibition activities (IC50) to Marchantia polymorpha L. photomixotrophic cells” value in experiment [1] (96 well plate) amounted to 0.70 ppm. The “growth inhibition activities (IC50) to Oryza sativa L. cv (Taebaegbyeo) heterotrophic cells” value in experiment [4] was 6.47 ppm.

On to `CSC(=O)c1c(C(F)F)nc(C(F)(F)F)c(C(=O)SC)c1CC(C)C` [Dithiopyr], for which the “growth inhibition activities (IC50) to Nicotiana tabacum cv. (BY4) photomixotrophic cells” value in experiment [3] was 0.141 ppm. The “growth inhibition activities (IC50) to Marchantia polymorpha L. photomixotrophic cells” value in experiment [1] (96 well plate) is given as 0.048 ppm. The “growth inhibition activities (IC50) to Oryza sativa L. cv (Taebaegbyeo) heterotrophic cells” value in experiment [4] is reported as 0.613 ppm.

As for `CCOC(=O)c1ccc(O)c(O)c1` [Protocatechuic acid ethyl ester], the inhibition at 1 ppm in experiment [1] (setting [5]) came out at 22%. The inhibition at 31 ppm in experiment [2] came to 70%.

Regarding `COc1cc(/C=C/C(=O)O)ccc1O` [Ferulic acid], the “effect of natural compounds on cell growth, in words” value (shortened to “effect of natural compounds”) in experiment [1] is listed as “growth promoting activity”. Also, in experiment [1] (setting [5]), the inhibition at 1 ppm is -35%. Also, the inhibition at 31 ppm in experiment [2] came out at 20%.

As to `O=C(Nc1ccc(F)cc1F)c1cccnc1Oc1cccc(C(F)(F)F)c1` [Diflufenican], the “growth inhibition activities (IC50) to Nicotiana tabacum cv. (BY4) photomixotrophic cells” value in experiment [3] is given as 4.67 ppm. For the same compound, the “growth inhibition activities (IC50) to Marchantia polymorpha L. photomixotrophic cells” value in experiment [1] (96 well plate) turned out to be 0.031 ppm. Also, in experiment [4], the “growth inhibiting activity to non-photomixotrophic (heterotrophic) cells, in words” value is given as “low growth inhibiting activity or almost none” and the “growth inhibition activities (IC50) to Oryza sativa L. cv (Taebaegbyeo) heterotrophic cells” value is recorded as over 10 ppm.

As for `O=C1COc2ccccc21` [3-Coumaranone], the “effect of natural compounds” value in experiment [1] was “growth promoting activity”. Also, the inhibition at 1 ppm in experiment [1] (setting [5]) was -18%. Also, the inhibition at 31 ppm in experiment [2] turned out to be 0%.

Regarding `COc1cc2ccc(=O)oc2cc1O` [Scopoletin], in experiment [1] (setting [5]), the inhibition at 1 ppm came out at 16%. Besides, in experiment [2], the inhibition at 31 ppm came out at 0%.

On to `COCC(=O)OC(c1ncccc1S(=O)(=O)NC(=O)Nc1nc(OC)cc(OC)n1)C(C)F` (stereo not shown) [LGC-42153], for which, in experiment [3], the “growth inhibition activities (IC50) to Nicotiana tabacum cv. (BY4) photomixotrophic cells” value is reported as 0.0022 ppm. Also, the “growth inhibition activities (IC50) to Marchantia polymorpha L. photomixotrophic cells” value in experiment [1] (96 well plate) is 0.0011 ppm. Also, in experiment [4], the “growth inhibition activities (IC50) to Oryza sativa L. cv (Taebaegbyeo) heterotrophic cells” value was 1.793 ppm.

Regarding `COc1cc(C(=O)O)ccc1O` [Vanillic acid], in experiment [1] (setting [5]), the inhibition at 1 ppm is 10%. For the same compound, the inhibition at 31 ppm in experiment [2] was 10%.

Take `O=c1ccc2ccc(O)cc2o1` [Umbelliferone]: the inhibition at 1 ppm in experiment [1] (setting [5]) was determined as 6%. Moreover, the inhibition at 31 ppm in experiment [2] came out at 40%.

With `CON(C)C(=O)Nc1ccc(Cl)c(Cl)c1` [Linurone], the “growth inhibition activities (IC50) to Nicotiana tabacum cv. (BY4) photomixotrophic cells” value in experiment [3] is over 10 ppm. For the same compound, the “growth inhibition activities (IC50) to Marchantia polymorpha L. photomixotrophic cells” value in experiment [1] (96 well plate) is recorded as 0.244 ppm. In experiment [4], the “growth inhibition activities (IC50) to Oryza sativa L. cv (Taebaegbyeo) heterotrophic cells” value is 7.07 ppm.

Take `COc1cc(C(=O)O)cc(OC)c1O` [Syringic acid]: in experiment [1] (setting [5]), the inhibition at 1 ppm was found to be 16%. The inhibition at 31 ppm in experiment [2] stood at 0%.

In the case of `CC(C)Oc1cc(-n2nc(C(C)(C)C)oc2=O)c(Cl)cc1Cl` [Oxadiazone], the “growth inhibition activities (IC50) to Nicotiana tabacum cv. (BY4) photomixotrophic cells” value in experiment [3] amounted to 0.39 ppm. Further, the “growth inhibition activities (IC50) to Marchantia polymorpha L. photomixotrophic cells” value in experiment [1] (96 well plate) was found to be 0.03 ppm. Moreover, in experiment [4], the “growth inhibition activities (IC50) to Oryza sativa L. cv (Taebaegbyeo) heterotrophic cells” value turned out to be 6.88 ppm.

Consider `COc1cc(Oc2ccc(Cl)cc2Cl)ccc1[N+](=O)[O-]` [Chloromethoxynil], for which the “growth inhibition activities (IC50) to Nicotiana tabacum cv. (BY4) photomixotrophic cells” value in experiment [3] turned out to be 0.193 ppm. Also, in experiment [1] (96 well plate), the “growth inhibition activities (IC50) to Marchantia polymorpha L. photomixotrophic cells” value is 0.076 ppm. For the same compound, in experiment [4], the “growth inhibiting activity to non-photomixotrophic (heterotrophic) cells, in words” value is listed as “low growth inhibiting activity or almost none” and the “growth inhibition activities (IC50) to Oryza sativa L. cv (Taebaegbyeo) heterotrophic cells” value is recorded as over 10 ppm.

`O=c1ccc2ccccc2o1` [Coumarin]: in experiment [1] (setting [5]), the inhibition at 1 ppm was 33%. In addition, the inhibition at 31 ppm in experiment [2] turned out to be 80%.

On to `O=c1oc2ccccc2c(O)c1Cc1c(O)c2ccccc2oc1=O` [Dicumarol], for which the “effect of natural compounds” value in experiment [1] is given as “growth promoting activity”. Also, in experiment [1] (setting [5]), the inhibition at 1 ppm was -31%. Also, the inhibition at 31 ppm in experiment [2] was 30%.

Take `CCOC(=O)c1cnn(C)c1S(=O)(=O)NC(=O)Nc1nc(OC)cc(OC)n1` [Prazolsulfuron-ethyl]: in experiment [3], the “growth inhibition activities (IC50) to Nicotiana tabacum cv. (BY4) photomixotrophic cells” value turned out to be 0.001 ppm. Further, the “growth inhibition activities (IC50) to Marchantia polymorpha L. photomixotrophic cells” value in experiment [1] (96 well plate) came to 0.0012 ppm. Further, the “growth inhibition activities (IC50) to Oryza sativa L. cv (Taebaegbyeo) heterotrophic cells” value in experiment [4] was 0.066 ppm.

Consider `O=C(O)/C=C/c1ccccc1O` [o-Coumaric acid], for which, in experiment [1] (setting [5]), the inhibition at 1 ppm turned out to be 32%. For the same compound, in experiment [2], the inhibition at 31 ppm was 30%.

Regarding `O=C(O)/C=C/c1ccc(O)c(O)c1` [Caffeic acid], the inhibition at 1 ppm in experiment [1] (setting [5]) is 21%. Besides, the inhibition at 31 ppm in experiment [2] was determined as 30%.

Take `CCC(=O)Nc1ccc(Cl)c(Cl)c1` [Propanil]: the “growth inhibition activities (IC50) to Nicotiana tabacum cv. (BY4) photomixotrophic cells” value in experiment [3] was 5.83 ppm. The “growth inhibition activities (IC50) to Marchantia polymorpha L. photomixotrophic cells” value in experiment [1] (96 well plate) is reported as 0.037 ppm. The “growth inhibition activities (IC50) to Oryza sativa L. cv (Taebaegbyeo) heterotrophic cells” value in experiment [4] was 8.49 ppm.

`COc1cc(OC)nc(Oc2cccc(Oc3nc(OC)cc(OC)n3)c2C(=O)ON=C(c2ccccc2)c2ccccc2)n1` [Pyribenzoxim]: the “growth inhibition activities (IC50) to Nicotiana tabacum cv. (BY4) photomixotrophic cells” value in experiment [3] is 0.0026 ppm. Further, in experiment [1] (96 well plate), the “growth inhibition activities (IC50) to Marchantia polymorpha L. photomixotrophic cells” value is given as 0.0092 ppm. For the same compound, in experiment [4], the “growth inhibition activities (IC50) to Oryza sativa L. cv (Taebaegbyeo) heterotrophic cells” value worked out at 7.83 ppm.

Consider `O=C(O)c1cc(O)c(O)c(O)c1` [Gallic acid], for which the inhibition at 1 ppm in experiment [1] (setting [5]) is 8%. Also, the inhibition at 31 ppm in experiment [2] worked out at 0%.

As to `O=C(O)/C=C/c1ccc(O)cc1` [p-Coumaric acid], in experiment [1] (setting [5]), the inhibition at 1 ppm turned out to be 17%. Moreover, the inhibition at 31 ppm in experiment [2] was determined as 30%.

Take `O=C(O)c1cc(O)ccc1O` [Gentistic acid]: the “Marchantia polymorpha L. photomixotrophic cells (% activity)” value in experiment [1] (natural compounds, final concentration 1 ppm, + inhibiting, − promoting) amounted to 9%. Moreover, the “Lemna paucicostata (% activity)” value in experiment [2] (final concentration 31 ppm, 5 days after treating) was 0%.

Turning to `O=C(O)c1ccccc1` [Benzoic acid], the inhibition at 31 ppm in experiment [2] was found to be 10%.

For `CCNc1nc(Cl)nc(NC(C)C)n1` [Atrazine], in experiment [3], the “growth inhibition activities (IC50) to Nicotiana tabacum cv. (BY4) photomixotrophic cells” value amounted to 0.18 ppm. Moreover, in experiment [1] (12 well plate, different concentrations, 1 and 5 hours after TTC), the intracellular formazan content entry is “decreased dose-dependently”. The “content that can inhibit cell growth upto about 50%” value in experiment [1] (96 well plate, TTC 5 hours) stood at 0.18 ppm. In experiment [1] (Marchantia polymorpha, 96 well plate, TTC 5 hours, read-out: content that can inhibit cell growth upto about 50%), the IC50 turned out to be 0.68 µM. The “growth inhibition activities (IC50) to Marchantia polymorpha L. photomixotrophic cells” value in experiment [1] (96 well plate) is on record as 0.21 ppm. In experiment [4], the “growth inhibiting activity to non-photomixotrophic (heterotrophic) cells, in words” value is given as “low growth inhibiting activity or almost none” and the “growth inhibition activities (IC50) to Oryza sativa L. cv (Taebaegbyeo) heterotrophic cells” value is on record as over 10 ppm.

For `CC(C)C1(C)N=C(c2ncccc2C(=O)O)NC1=O` (stereo not shown) [Amazapyr], the “growth inhibition activities (IC50) to Nicotiana tabacum cv. (BY4) photomixotrophic cells” value in experiment [3] was determined as 0.018 ppm. The “growth inhibition activities (IC50) to Marchantia polymorpha L. photomixotrophic cells” value in experiment [1] (96 well plate) is 0.35 ppm. Besides, the “growth inhibition activities (IC50) to Oryza sativa L. cv (Taebaegbyeo) heterotrophic cells” value in experiment [4] is recorded as 0.269 ppm.

As to `CC(Oc1ccc2ccccc2c1)C(=O)Nc1ccccc1` (stereo not shown) [Naproanilide], in experiment [3], the “growth inhibition activities (IC50) to Nicotiana tabacum cv. (BY4) photomixotrophic cells” value is listed as 0.0019 ppm. In addition, the “growth inhibition activities (IC50) to Marchantia polymorpha L. photomixotrophic cells” value in experiment [1] (96 well plate) came to 0.054 ppm. For the same compound, the “growth inhibition activities (IC50) to Oryza sativa L. cv (Taebaegbyeo) heterotrophic cells” value in experiment [4] was 6.69 ppm.
